Measured values as given in patent publication US20240059703A1 (AMGEN INC., priority 2021, published 2024).

Target: KRAS G12C (Homo sapiens (Human), UniProt P01116, C118A/G12C)
Assay: 2 h coupled exchange assay
Format: biochemical
Conditions: Avg 2 h Coupled exchange IC50, 2 h compound pre-incubation
Procedure: The term “2 h coupled exchange assay” or “20 h coupled exchange assay” as used herein refers to the assay described in the Section entitled “BIOLOGICAL EVALUATION.”

[1] = SOS-mediated nucleotide exchange

Chain of KRAS G12C (P01116 other isoform, or with tags, fused parts or gaps G12C/C118A): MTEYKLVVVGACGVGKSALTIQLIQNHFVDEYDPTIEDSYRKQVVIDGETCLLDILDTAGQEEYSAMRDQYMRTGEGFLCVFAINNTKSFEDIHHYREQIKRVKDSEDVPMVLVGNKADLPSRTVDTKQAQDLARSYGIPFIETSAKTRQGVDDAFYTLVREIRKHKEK

IC50 [µM]	IC50 [1] [µM]	Compound
1.77	–	C=CC(=O)N1CC2(CCN(c3nc4c(c(-c5ccc(F)c6sc(N)nc56)c3C)COC(C)(C)C4)C2)C1 (single isomer, unassigned) [Example 14-39, (M)-1-(6-(4-(2-amino-7-fluoro-1,3-benzothiazol-4-yl)-3,7,7-trimethyl-7,8-dihydro-5H-pyrano[4,3-b]pyridin-2-yl)-2,6-diazaspiro[3.4]octan-2-yl)-2-propen-1-one]
7.81	–	C=CC(=O)N1CC2(CCN(c3nc4c(c(-c5c(C)c(C)cc6cnn(C)c56)c3C)COC(C)(C)C4)C2)C1 (single isomer, unassigned) [Example 14-42, (M)-1-(6-(3,7,7-trimethyl-4-(1,5,6-trimethyl-1H-indazol-7-yl)-7,8-dihydro-5H-pyrano[4,3-b]pyridin-2-yl)-2,6-diazaspiro[3.4]octan-2-yl)-2-propen-1-one]
7.48	–	C=CC(=O)N1CC2(CCN(c3nc4c(c(-c5cccc6cc(O)ccc56)c3C)COC(C)(C)C4)C2)C1 (single isomer, unassigned) [Example 14-45, (M)-1-(6-(4-(6-hydroxy-1-naphthalenyl)-3,7,7-trimethyl-7,8-dihydro-5H-pyrano[4,3-b]pyridin-2-yl)-2,6-diazaspiro[3.4]octan-2-yl)-2-propen-1-one]
1.02	–	C=CC(=O)N1CC2(CCN(c3nc4c(c(-c5c(C)ccc6cn[nH]c56)c3C#N)C[C@H]3C[C@@H]4C3(C)C)C2)C1 (single isomer, unassigned) [Example 14-52]
3.35	–	C=CC(=O)N1CC2(CCN(c3nc4c(c(-c5cc(O)ccc5C)c3F)C[C@H]3C[C@@H]4C3(C)C)C2)C1 (single isomer, unassigned) [Example 14-60]
0.364	–	C=CC(=O)N1CC2(CCN(c3nc4c(c(-c5c(C)ccc6cnn(C)c56)c3F)C[C@H]3C[C@@H]4C3(C)C)C2)C1 (single isomer, unassigned) [Example 14-63]
0.64	–	C=CC(=O)N1CC2(CCN(c3nc4c(c(-c5cccc6cc(O)ccc56)c3F)COC(C)(C)C4)C2)C1 (single isomer, unassigned) [Example 14-67, (M)-1-(6-(3-fluoro-4-(6-hydroxy-1-naphthalenyl)-7,7-dimethyl-7,8-dihydro-5H-pyrano[4,3-b]pyridin-2-yl)-2,6-diazaspiro[3.4]octan-2-yl)-2-propen-1-one]
1.56	–	C=CC(=O)N1CC2(CCN(c3nc4c(c(-c5c(C)ccc6[nH]ncc56)c3F)C[C@H]3C[C@@H]4C3(C)C)C2)C1 (single isomer, unassigned) [Example 14-74]
0.726	–	C=CC(=O)N1CC2(CCN(c3nc4c(c(-c5c(C)ccc6cnn(C)c56)c3F)C[C@H]3C[C@@H]4C3(C)C)C2)C1 (single isomer, unassigned) [Example 14-75]
0.023	–	C=CC(=O)N1CC2(CCN(c3nc4c(c(-c5c(C)c(Cl)cc6cnn(C)c56)c3F)COC(C)(C)C4)C2)C1 (single isomer, unassigned) [Example 14-78, (M)-1-(6-(4-(5-chloro-1,6-dimethyl-1H-indazol-7-yl)-3-fluoro-7,7-dimethyl-7,8-dihydro-5H-pyrano[4,3-b]pyridin-2-yl)-2,6-diazaspiro[3.4]octan-2-yl)-2-propen-1-one]
9.6	–	C=CC(=O)N1CC2(CCN(c3nc4c(c(-c5c(C)c(Cl)cc6cnn(C)c56)c3F)COC(C)(C)C4)C2)C1 (single isomer, unassigned) [Example 14-79, (P)-1-(6-(4-(5-chloro-1,6-dimethyl-1H-indazol-7-yl)-3-fluoro-7,7-dimethyl-7,8-dihydro-5H-pyrano[4,3-b]pyridin-2-yl)-2,6-diazaspiro[3.4]octan-2-yl)-2-propen-1-one]
0.301	–	C=CC(=O)N1CC2(CCN(c3nc4c(c(-c5c(C)ccc6cnn(C)c56)c3F)COC(C)(C)C4)C2)C1 (single isomer, unassigned) [Example 14-101, (M)-1-(6-(4-(1,6-dimethyl-1H-indazol-7-yl)-3-fluoro-7,7-dimethyl-7,8-dihydro-5H-pyrano[4,3-b]pyridin-2-yl)-2,6-diazaspiro[3.4]octan-2-yl)-2-propen-1-one]
3.58	–	C=CC(=O)N1CC2(CCN(c3nc4cc(-n5ccnc5C)ccc4c(-c4ccccc4Cl)c3C)[C@H]2C)C1 (single isomer, unassigned) [Example 15-6]
–	3.53	C=CC(=O)N1CC2(CCN(c3cn4ccnc4c(-c4cc(O)ccc4C)c3C#N)C2)C1 [Example 1-29, 8-(5-hydroxy-2-methylphenyl)-6-(2-(2-propenoyl)-2,6-diazaspiro[3.4]octan-6-yl)imidazo[1,2-a]pyridine-7-carbonitrile]

Second part, the compound before the results:

Compound	IC50 [µM]	IC50 [1] [µM]
C=CC(=O)N1CC2(CCN(c3nc4c(c(-c5c(C)ccc6[nH]ncc56)c3C)COC(C)(C)C4)C2)C1 (single isomer, unassigned) [Example 14-34, (M)-1-(6-(3,7,7-trimethyl-4-(5-methyl-1H-indazol-4-yl)-7,8-dihydro-5H-pyrano[4,3-b]pyridin-2-yl)-2,6-diazaspiro[3.4]octan-2-yl)-2-propen-1-one]	7.59	–
C=CC(=O)N1CC2(CCN(c3nc4c(c(-c5cc(O)cc6ccccc56)c3C)COC(C)(C)C4)C2)C1 (single isomer, unassigned) [Example 14-35, (P)-1-(6-(4-(3-hydroxy-1-naphthalenyl)-3,7,7-trimethyl-7,8-dihydro-5H-pyrano[4,3-b]pyridin-2-yl)-2,6-diazaspiro[3.4]octan-2-yl)-2-propen-1-one]	5.62	–
C=CC(=O)N1CC2(CCN(c3nc4c(c(-c5ccc(F)c6sc(N)nc56)c3C#N)COC(C)(C)C4)C2)C1 (single isomer, unassigned) [Example 14-58, (M)-4-(2-amino-7-fluoro-1,3-benzothiazol-4-yl)-7,7-dimethyl-2-(2-(2-propenoyl)-2,6-diazaspiro[3.4]octan-6-yl)-7,8-dihydro-5H-pyrano[4,3-b]pyridine-3-carbonitrile]	0.357	–
C=CC(=O)N1CC2(CCN(c3nc4c(c(-c5cc(O)ccc5C)c3F)COC(C)(C)C4)C2)C1 (single isomer, unassigned) [Example 14-61, (M)-1-(6-(3-fluoro-4-(5-hydroxy-2-methylphenyl)-7,7-dimethyl-7,8-dihydro-5H-pyrano[4,3-b]pyridin-2-yl)-2,6-diazaspiro[3.4]octan-2-yl)-2-propen-1-one]	76.8	–
C=CC(=O)N1CC2(CCN(c3nc4c(c(-c5cc(O)ccc5C)c3F)COC(C)(C)C4)C2)C1 (single isomer, unassigned) [Example 14-62, (P)-1-(6-(3-fluoro-4-(5-hydroxy-2-methylphenyl)-7,7-dimethyl-7,8-dihydro-5H-pyrano[4,3-b]pyridin-2-yl)-2,6-diazaspiro[3.4]octan-2-yl)-2-propen-1-one]	0.696	–
C=CC(=O)N1CC2(CCN(c3nc4c(c(-c5c(C)ccc6cnn(C)c56)c3F)C[C@H]3C[C@@H]4C3(C)C)C2)C1 (single isomer, unassigned) [Example 14-64]	11.8	–
C=CC(=O)N1CC2(CCN(c3nc4c(c(-c5cccc6cc(O)ccc56)c3F)COC(C)(C)C4)C2)C1 (single isomer, unassigned) [Example 14-66, (P)-1-(6-(3-fluoro-4-(6-hydroxy-1-naphthalenyl)-7,7-dimethyl-7,8-dihydro-5H-pyrano[4,3-b]pyridin-2-yl)-2,6-diazaspiro[3.4]octan-2-yl)-2-propen-1-one]	33.5	–
C=CC(=O)N1CC2(CCN(c3nc4c(c(-c5cc(O)cc6ccccc56)c3F)COC(C)(C)C4)C2)C1 (single isomer, unassigned) [Example 14-69, (M)-1-(6-(3-fluoro-4-(3-hydroxy-1-naphthalenyl)-7,7-dimethyl-7,8-dihydro-5H-pyrano[4,3-b]pyridin-2-yl)-2,6-diazaspiro[3.4]octan-2-yl)-2-propen-1-one]	17	–
C=CC(=O)N1CC2(CCN(c3nc4c(c(-c5c(C)ccc6cn[nH]c56)c3C#N)COC(C)(C)C4)C2)C1 (single isomer, unassigned) [Example 14-82, (M)-7,7-dimethyl-4-(6-methyl-1H-indazol-7-yl)-2-(2-(2-propenoyl)-2,6-diazaspiro[3.4]octan-6-yl)-7,8-dihydro-5H-pyrano[4,3-b]pyridine-3-carbonitrile]	5.76	–
C=CC(=O)N1CC2(CCN(c3nc4c(c(-c5c(C)c(Cl)cc6cnn(C)c56)c3C)COC(C)(C)C4)C2)C1 (single isomer, unassigned) [Example 14-88, (M)-1-(6-(4-(5-chloro-1,6-dimethyl-1H-indazol-7-yl)-3,7,7-trimethyl-7,8-dihydro-5H-pyrano[4,3-b]pyridin-2-yl)-2,6-diazaspiro[3.4]octan-2-yl)-2-propen-1-one]	10.4	–
C=CC(=O)N1CC2(CCN(c3nc4c(c(-c5c(C)ccc6cnn(C)c56)c3C)COC(C)(C)C4)C2)C1 (single isomer, unassigned) [Example 14-100, (M)-1-(6-(4-(1,6-dimethyl-1H-indazol-7-yl)-3,7,7-trimethyl-7,8-dihydro-5H-pyrano[4,3-b]pyridin-2-yl)-2,6-diazaspiro[3.4]octan-2-yl)-2-propen-1-one]	0.602	–
C=CC(=O)N1CC2(CCN(c3nc4c(c(-c5c(C)ccc6cnn(C)c56)c3F)COC(C)(C)C4)C2)C1 (single isomer, unassigned) [Example 14-102, (P)-1-(6-(4-(1,6-dimethyl-1H-indazol-7-yl)-3-fluoro-7,7-dimethyl-7,8-dihydro-5H-pyrano[4,3-b]pyridin-2-yl)-2,6-diazaspiro[3.4]octan-2-yl)-2-propen-1-one]	55.6	–
C=CC(=O)N1CC2(CCN(c3nc4cc(-n5ccnc5C)ccc4c(-c4ccccc4Cl)c3C)[C@H]2C)C1 (single isomer, unassigned) [Example 15-5]	0.779	–
C=CC(=O)N1CC2(C1)CN(c1cc3ccccc3c(-c3c(C)ccc4[nH]ncc34)c1C#N)C2 [Example 1-34, 1-(5-methyl-1H-indazol-4-yl)-3-(6-(2-propenoyl)-2,6-diazaspiro[3.3]heptan-2-yl)-2-naphthalenecarbonitrile]	–	0.823
